Measured values from patent US7514432B2, “Compounds and methods of treating cell proliferative diseases, retinopathies and arthritis” (Exonhit Therapeutics SA, priority 2003, dated 2009).
Where two headings read alike, the source gives them in different places.

What was measured:
NIH 3T3 = assay: Cell viability assay (MTT), NIH 3T3; assay type: cell-based, mouse; settings: 10% FBS, 1% DMSO
Summary of the method: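 MTT viability in medium with 10% FBS and 1% DMSO, with cells seeded 24 h before treatment at 0–200 μM (11 concentrations). There were two formats: 6-day (3–15 10^3 cells, re-fed every 3 days) or 16-hour (5–10 10^4 cells). Absorbance was read at 550 nm, giving IC50 (50% cell death) as mean±SEM.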

[1] = system: Salmonella typhimurium TA 98 and TA 100 strains; assay: Screening Ames test; settings: with and without S9 mix; 10 to 5000 μg per plate
Text: The objective of this study was to evaluate the potential of the test items to induce reverse mutation in Salmonella Typhimurium (TA 98 and TA 100 strains). The bacterial reverse mutation test is able to identify substances that cause point mutations, by substitution, addition or deletion of one or a few DNA base-pairs. Mutagenic substances can induce reversion in histidine deficient strains which are then able to grow and form colonies in a histidine-limited medium, while non-reverted cannot. This test is performed in the absence and presence of a rat liver metabolising system (S9 mix). Three known mutagens are used to check sensitivity of test system: sodium azide, 2-nitrofluorene and 2-anthramine.
The dose levels per plate were of 10 to 5000 μg. A preliminary toxicity test was performed followed by the mutagenecity test per se.

MDA-MB-231 = assay: Cell viability assay (MTT), MDA-MB-231; assay type: cell-based, human; settings: 1% DMSO
Summary of the method: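 Cells seeded 24 h before treatment with 0–200 μM compound (11 concentrations, 1% DMSO final) in 10% or 0.5% FBS medium; exposure 16 h, 3 or 6 days, fed every 3 days in 6-day runs. MTT 0.5 mg/ml read at 550 nm; IC50 from dose-response curves, mean±SEM.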

MCF7 = assay: Cell viability assay (MTT), MCF7; assay type: cell-based; settings: Homo sapiens, 10% FBS, 1% DMSO
Experimental: Table 12: 6-day cell viability assay (MTT) in the presence of 10% Fetal Bovine Serum and 1% DMSO, in HMEC1, HCT116, MDA-MB-231, MCF7 and NIH3T3 cell lines. 3 10^3 to 15 10^3 cells were seeded in 48-well plates in growth medium containing 10% FBS, with or without various concentrations of test compounds. Cell cultures were fed every 3 days with the appropriate media. Cell viability was determined on day 6. Data were analyzed and IC50s were calculated from dose-response curves using GraphPad Prism. Results summarized in the tables are mean±SEM of 1 to 8 independent experiments.
Table 14: 3-day cell viability assay (MTT) in the presence of 10% Fetal Bovine Serum and 1% DMSO, in DLD1, HCT116, MDA-MB-231, MCF7 and HeLa cells. 7.5 10^3 to 1.5 10^4 cells were seeded in 48-well plates in growth medium containing 10% FBS, with or without various concentrations of test compounds. Data were analyzed and IC50s were calculated from dose-response curves using GraphPad Prism. Results summarized in the tables are mean±SEM of 1 to 7 independent experiments.
In order to determine a compound's effect on cell viability, microculture tetrazolium assays (MTT) were performed as described by Carmichael et al. (1996) with modifications. Four human tumoral cell lines, namely HCT116 colon adenocarcinoma, H460 lung carcinoma, MCF-7 and MDA-MB-231 breast carcinoma cell lines, DLD1 colorectal adenocarcinoma, HeLa adenocarcinoma, HepG2 hepatocellular carcinoma. 3 immortalized but non tumorigenic cell lines, namely NIH3T3 mouse fibroblasts (American Type Culture Collection) and primary hepatocytes (Biopredic international), cultured according to their recommendations together with Human Microvasculature Endothelial Cell line HMEC1 (National Center for Infectious Diseases). Briefly, cells were seeded in 48-well plates 24 hours before drug addition. Cells were treated with 0 to 200 μM (11 concentrations) of compound solubilized in DMSO, adjusting the final concentration of DMSO to 1% in the well. 16 hours, and three or six days after treatment, 0.5 mg/ml MTT (Sigma) was added to the medium and cells were incubated for 1-5 hours at 37° C. before solubilization of formazan crystals in 100% DMSO. Absorbance was measured using a spectrophotometer at a wavelength of 550 nm. Data was analyzed using the GraphPad Prism software (GraphPad Software, Inc.), and IC50 (dose leading to 50% cell death) was calculated from the dose-response curves.

[2] = Mus musculus, NIH3T3, 16 h, 16-hours treatment
[3] = Homo sapiens, MDA-MB-231, 16 h, 10% FBS, 16-hours treatment, read-out: IC50 μM, MDA-MB-231
[4] = Homo sapiens, MDA-MB-231, 72 h, 10% FBS, 3-day treatment, read-out: IC50 μM, MDA-MB-231
[5] = Homo sapiens, MDA-MB-231, 144 h, 0.5% FBS, 6-day treatment, read-out: IC50 (μM), MDA-MB-231
[6] = Mus musculus, NIH3T3, 144 h, 6-day treatment

Structure (SMILES)	IC50 (NIH 3T3; 6-day treatment, trihydrochloride)	IC50 (NIH 3T3; [2])	mutagenic activity [1]	IC50 (MDA-MB-231; 10% FBS, 6-day treatment, trihydrochloride, read-out: IC50 μM, MDA-MB-231)	IC50 (MDA-MB-231; [3])	IC50 (MDA-MB-231; [4])	IC50 (MDA-MB-231; [5])	IC50 (MCF7; MCF7, 72 h, 3-day treatment)	IC50 (MCF7; MCF7, 144 h, 6-day treatment)	IC50 (NIH 3T3; [6])	IC50 (MDA-MB-231; 10% FBS, 6-day treatment, dihydrochloride, read-out: IC50 μM, MDA-MB-231)	IC50 (MDA-MB-231; Homo sapiens, MDA-MB-231, 144 h, 10% FBS, 6-day treatment, read-out: IC50 μM, MDA-MB-231)
CN1CCN(Cc2cc(=O)c(OCCCCCSc3ccnc4cc(C(F)(F)F)ccc34)co2)CC1.Cl.Cl.Cl [EHT 9241, 5-(5-(7-(Trifluoromethyl)quinolin-4-ylthio)pentyloxy)-2-((4-methylpiperazin-1-yl)methyl)-4H-pyran-4-one trihydrochloride]	8.7 µM	25.6 µM	did not show any mutagenic activity	5.3 µM	48.4 µM	11.1 µM	3.8 µM	7.5 µM	1.2 µM			
Cl.Cl.Cl.O=c1cc(CN2CCNCC2)occ1OCCCCCSc1ccnc2cc(C(F)(F)F)ccc12 [EHT 8560, 5-(5-(7-(Trifluoromethyl)quinolin-4-ylthio)pentyloxy)-2-((piperazin-1-yl)methyl)-4H-pyran-4-one trihydrochloride]			did not show any mutagenic activity			9 µM	4 µM	9.2 µM		5.1 µM		
Cl.Cl.O=c1cc(CN2CCOCC2)occ1OCCCCCSc1ccnc2cc(C(F)(F)F)ccc12 [EHT 1864, 5-(5-(7-(Trifluoromethyl)quinolin-4-ylthio)pentyloxy)-2-(morpholinomethyl)-4H-pyran-4-one dihydrochloride]		69.3 µM	did not show any mutagenic activity		126 µM	9.9 µM	6.3 µM	15.2 µM	5.6 µM	19.8 µM	9.3 µM	< 9 µM
